Laboratory results: US11465972B2, “Inhibitors of oxidized low-density lipoprotein receptor 1 and methods of use thereof” (United States Government as represented by the Department …, priority 2015, dated 2022)
“And” between values parts separate entries of the source, which are not always exact repeats. Equal values may be shown once.

What was measured:
human LOX-1 = human LOX-1 (Homo sapiens, UniProt P78380); assay: Dil-ox-LDL uptake in CHO cells overexpressing human LOX-1; assay type: cell-based; details: 0, 20, 200, 2000 nM, read-out: IC50, inhibition of Dil-ox-LDL uptake
Description: FIG. 3A, FIG. 3B, FIG. 3C and FIG. 3D depict the inhibitory effect of the lead compounds on Dil-ox-LDL uptake by HUVECs and CHO cells (measured by flow cytometry) and the effect of the lead compounds on ox-LDL-induced LOX-1 mRNA and protein expression. (FIG. 3A) (Upper Panel) Flow cytometry measurements using HUVECs in the presence of the five lead compounds (Mol-1-Mol-5), each a at 200 nM concentration. (Lower Panel) The percentage of internalized ox-LDL. Graphs show data as mean (±SD); n=4. *P<0.01 or <0.05 vs. control. (FIG. 3B) IC50 value for Mol-5. IC50 value (in nM) is based on inhibition of Dil-ox-LDL uptake in CHO cells overexpressing human LOX-1. Graphs show data as mean (±SD); n=5. *P<0.01 or <0.05 vs. control. (FIG. 3C) Western blotting assay showing LOX-1 protein expression in HUVECs following incubation with 200 nM Mol-1 to Mol-5 for 30 min, and subsequently exposure to 5 μg/mL ox-LDL for 6 hours. […]
For further characterization, human endothelial cells and fluorescently-labeled Dil-ox-LDL were used for measuring initiation of atherogenic process based on interaction of vascular wall with ox-LDL. Ox-LDL uptake by human umbilical vein endothelial cells (HUVECs) was measured after exposure to 200 nM of each compound using flow cytometry. […] The dose response to modulation of ox-LDL uptake by Mol-5 (0, 20, 200 and 2000 nM) was also measured in CHO cells overexpressing human LOX-1. […]

ECs = assay: Second dose response of ox-LDL uptake by ECs (lower concentrations); assay type: cell-based; details: second dose response curve, estimated
Description: FIG. 6A depicts the IC50 for Mol-5. The x-axis represents Mol-5 concentration (nM) and the y-axis represents ox-LDL uptake by ECs. FIG. 6B depicts the ox-LDL uptake with Mol-5 inhibition.
For further characterization, human endothelial cells and fluorescently-labeled Dil-ox-LDL were used for measuring initiation of atherogenic process based on interaction of vascular wall with ox-LDL. Ox-LDL uptake by human umbilical vein endothelial cells (HUVECs) was measured after exposure to 200 nM of each compound using flow cytometry. […] The dose response to modulation of ox-LDL uptake by Mol-5 (0, 20, 200 and 2000 nM) was also measured in CHO cells overexpressing human LOX-1. […] A second dose response curve was conducted to narrow in on the effect of lower concentrations of Mol-5 on ox-LDL uptake (FIG. 6A). Using this information the EC50 was estimated to be […] (FIG. 6B).

[1] = Liver microsomal stability, mouse; assay type: in vitro ADME; details: mouse liver microsomes
Description: Metabolic stability or clearance is recognized as one of the main determinants of drug concentration in blood. The metabolic stability of Mol-5 was tested using liver microsomes form mice and humans to obtain stability ranking and intrinsic clearance.

IC50 (human LOX-1): ~200 nM and 200 nM
EC50 (ECs): 64 nM
half-life [1]: 1.7 ± 0.1 min
metabolic stability (in words) [1]: low stability
microsomal CLint [1]: 836 ± 40.8 µL/min/mg
Structure (SMILES): Cc1cc(C)n(CC(O)COc2ccccc2)n1 (centres unmarked) [Mol-5, 1-(3,5-dimethyl-1H-pyrazol-1-yl)-3-phenoxypropan-2-ol]
